The values that follow are results of earlier work, collected in patent publication US20240207252A1, “AEROSOL-FORMING SUBSTRATE AND AEROSOL-GENERATING SYSTEM” (SHENZHEN FIRST UNION TECHNOLOGY CO., LTD., priority 2021, published 2024).

For the series the following is noted: single oral administration.

The structures appear in SMILES notation.

Take `COC(=O)[C@@H]1[C@H]2C[C@H]3c4[nH]c5ccccc5c4CCN3C[C@@H]2CC[C@@H]1O` [yohimbine, methyl 17alpha-hydroxyyohimban-16alpha-carboxylate]: the Tmax result was “less than 1 h” and the t1/2 entry is listed as “less than 1 h”.
